ED50 data for 7 molecules are collected here from patent EP0095262A1, “Azabicycloalkane derivatives, their preparation and medicaments containing them” (BEECHAM GROUP PLC, priority 1982, dated 1983).

For one test, the system named is post-synaptic Dopamine (D.A.) receptors. The test can be described thus: Inhibition of apomorphine induced climbing in the mouse. The format is in vivo. The note with it: p.o., ½ hr post dosing; dose for 50% inhibition of climbing induced by apomorphine 1 mg/kg s.c.; male CD1 mice; 30 min. How it is done: The results in the following table are an illustration of the anti-psychotic activity of the present compounds as shown by Inhibition of Apormorphine Induced Climbing in the Mouse, a standard test.
The test is based on that described by Protais, P., Constantin, J. and Schwartz J.C. (1976), Psychopharmacology, 50, 1-6.
When mice are given a dose of 1 mg/kg apomorphine and then placed in an enclosed environment, such as an inverted wire cage, they are seen to climb around the walls. This behavioural phenomenon is thought to be a consequence of the stimulation of post-synaptic Dopamine (D.A.) receptors in the nucleus accumbens. Inhibition of apomorphine induced climbing is therefore indicative of post-synaptic D.A. receptor blockade in the accumbens.
Groups of lO male CD1 mice, weighing 25-30 g were pre-treated orally with either graded doses of the test compound or vehicle, at appropriate time intervals before the subcutaneous administration of a sub-maximal dose of apomorphine (1 mg/kg). Immediately after the apomorphine injection the mice were placed in wire 'climbing cages' and each animal was scored for climbing behavour at 10 and 20 minutes post apomorphine as follows:-
The total score was calculated for each group of mice and expressed as a percentage inhibition of climbing. [formula]
ED50's and fiducial limits were calculated according to the method of Litchfield and Wilcoxon, the ED50 being the dose that produced a 50% inhibition of apomorphine - induced climbing.
Regarding `COc1cc(N)c(Cl)cc1C(=O)NC1CC2CC(C)C(C1)N2Cc1ccc(C)cc1` (stereo not drawn) [Example 1, 4-Amiho-5-chloro-2-rnethoxyy-N-[6'-exo-methyl-8'-(4-methylbenzyl)-8'-azabicycloro[3.2.1]-oct-3-β-yl]-benzamide], the ED50 was 0.19 p.o. ½ hr mg/kg.
Same read-out and setting: to “4-Amino-5-Chloro-2-Methoxy-N-[6'-endomethyl-9'-(4 methyl- benzyiyl)-9'-aza-bicyclo[3.3,1]-non-3-β- 1]benzamide [Example 6]” belongs 1.1 p.o. ½ hr mg/kg; to “4-Amino-5-Chloro-2-Methoxy-N-[6'-exo-methl-9'-(4-methylbenzyl)-9'-aza-bicyclo[3.3.1]-non-3-β-yl]benzamide [Example 7]”, 2.75 p.o. ½ hr mg/kg.
“2,3-Dimethoxy-N-[7'-exo-Methyl-9'-(4-methylbenzyl)-9'-aza- bicycclo-[3.3.1]-non-3-β-yl]benzamide [Example 8]” showed an ED50 of 0.48 p.o. ½ hr mg/kg.
“2-[7'-exo-Methyl-9'-(4-methyl benzyl)-9'-aza-bicyclo[3.3.1] -non-3-β-yl]-phthalimidine [Example 9]” returned an ED50 of 2.65 p.o. ½ hr mg/kg.
Still for that read-out and setting: to “4-Amino-5 -Chloro-2-Methoxy-N-[7'-Methyl-9'-(4-Methylbenzyl)-9'-aza-bicyclo[3.3.1]-non-3-P-yl]benzamide [Example 5]” belongs 0.6 p.o. ½ hr mg/kg.

The same test, now with this note: s.c., 4 hrs post dosing; dose for 50% inhibition of climbing induced by apomorphine 1 mg/kg s.c.; male CD1 mice.
“4-Amino-5-chloro-2-methoxy-N-[6'-exo-hydroxy-8'-benzyl-8'-azabicyclol[3.2.1]-oct-3'-β-yl]-benzamide [Example 4]” had an ED50 of 0.47 s.c. 4 hrs mg/kg.
